In patent publication US9394268B2, “(E)-1-(5-methoxy-2,2-dimethyl-2H-chromen-8-yl)-3-(4-methoxyphenyl)prop-2-en-1-one and analogs thereof, as well as preparation method and use thereof” (Sichuan University, priority 2012, dated 2016) one finds IC50 data, which are given here for 19 compounds.

The structures appear in SMILES notation.

Holding throughout (type): cell-based
One assay relates to HepG2. Briefly: Cell proliferative assay (MTT), HepG2. As to conditions: Homo sapiens, 72 h incubation, read-out: IC50s HepG2. Here is the method: (§1) The synthesized compounds were evaluated for their cytotoxin activity against suspended tumor cells. These cells were seeded on 96-well plates and incubated for 24 h. Selected compounds were added at various doses and incubated for 72 h, MTT was then added, and the absorbance was measured at a wavelength of 590 nm. IC50 values are expressed as the mean±SEM from the dose-response curves of at least three independent experiments.

The subject of a further assay is K562. In words: Cell proliferative assay (MTT), K562. As to conditions: Homo sapiens, 72 h incubation, read-out: IC50s K562. How it is done:
as §1

In another assay the test system is A549. In words: Cell proliferative assay (MTT), A549. As to conditions: Homo sapiens, 72 h incubation, read-out: IC50s A549. How it is done:
as §1

For a further assay, the system named is A375. In words: Cell proliferative assay (MTT), A375. As to conditions: Homo sapiens, A-375, 72 h incubation, read-out: IC50s A375. How it is done: as §1
Another assay deals with SMMC-7221. Briefly: Cell proliferative assay (MTT), SMMC-7221. As to conditions: 72 h incubation, read-out: IC50s SMMC-7221. How it is done: as §1
A further assay has as its system LO2. In words: Cell proliferative assay (MTT), LO2. As to conditions: Homo sapiens, L02, 72 h incubation, read-out: IC50s LO2. How it is done:
as §1

On to `CCN(CC)c1ccc(/C=C/C(=O)c2ccc(OC(C)=O)c3c2OC(C)(C)C=C3)cc1` [SKLBC-48, (E)-8-(3-(4-(diethylamino)phenyl)acryloyl)-2,2-dimethyl-2H-chromen-5-yl acetate], for which the IC50 with HepG2 is above 10 µM; in the assay on K562 it was 8.75 µM; with A549 it was 17.1 µM; in the assay on A375 it was 9.6 µM; in the assay with SMMC-7221 it was above 10 µM; in the assay on LO2, above 20 µM.

For `CCCCC(=O)Oc1ccc(C(=O)/C=C/c2ccc(N(CC)CC)cc2)c2c1C=CC(C)(C)O2` [SKLBC-51, (E)-8-(3-(4-(diethylamino)phenyl)acryloyl)-2,2-dimethyl-2H-chromen-5-ylpentanoate], the IC50 in the assay with HepG2 was above 10 µM; with K562, above 10 µM; in the assay on A549 it was above 20 µM; with A375 it was above 10 µM; with SMMC-7221, above 10 µM; in the assay on LO2 it was 20 µM.

Consider `CCN(CC)c1ccc(/C=C/C(=O)c2ccc(OS(=O)(=O)C3CC3)c3c2OC(C)(C)C=C3)cc1` [SKLBC-53, (E)-8-(3-(4-(diethylamino)phenyl)acryloyl)-2,2-dimethyl-2H-chromen-5-yl cyclopropanesulfonate], for which the IC50 in the assay on HepG2 is 8.2 µM; in the assay on K562 it was 4.25 µM; in the assay on A549, above 10 µM; in the assay with A375, 3.75 µM; in the assay on SMMC-7221 it was 3.38 µM; in the assay with LO2 it was above 10 µM.

Take `CCN(CC)c1ccc(/C=C/C(=O)c2ccc(OC(=O)C3C4C[C@H]5C[C@@H](C4)C[C@@H]3C5)c3c2OC(C)(C)C=C3)cc1` (some centres unmarked) [SKLBC-56, (1r,3r,5r,7r)-8-((E)-3-(4-(diethylamino)phenyl)acryloyl)-2,2-dimethyl-2H-chromen-5-yl adamantane-2-carboxylate]: the IC50 in the assay with HepG2 is 9.45 µM; in the assay with A549 it was 9.1 µM; with A375, above 10 µM; with SMMC-7221 it was 0.59 µM; in the assay on LO2, above 10 µM.

Consider `COc1ccc(/C=C/C(=O)c2ccc(OC)c3c2OC(C)(C)C=C3)cc1OCCN1CCOCC1` [SKLBC-57, (E)-1-(5-methoxy-2,2-dimethyl-2H-chromen-8-yl)-3-(4-methoxy-3-(2-morpholinoethoxy)phenyl)prop-2-en-1-one], for which the IC50 in the assay with HepG2 is above 10 µM; in the assay on K562, above 10 µM; with A549, above 10 µM; in the assay with A375, above 10 µM; in the assay with SMMC-7221, above 10 µM; with LO2 it was above 20 µM.

For `COc1ccc(/C=C/C(=O)c2ccc(OC)c3c2OC(C)(C)C=C3)cc1OCCO` [SKLBC-58, (E)-3-(3-(2-hydroxyethoxy)-4-methoxyphenyl)-1-(5-methoxy-2,2-dimethyl-2H-chromen-8-yl)prop-2-en-1-one], the IC50 in the assay on HepG2 was 0.226 µM; with K562 it was 0.5 µM; in the assay on A549, 0.58 µM; in the assay on A375, 0.67 µM; in the assay with SMMC-7221, 1.32 µM; with LO2, above 10 µM.

`COc1ccc(/C=C/C(=O)c2ccc(OC)c3c2OC(C)(C)C=C3)cc1OCCN1CCCC1` [SKLBC-59, (E)-1-(5-methoxy-2,2-dimethyl-2H-chromen-8-yl)-3-(4-methoxy-3-(2-(pyrrolidin-1-yl)ethoxy)phenyl)prop-2-en-1-one]: the IC50 in the assay with HepG2 was above 10 µM; with K562, above 10 µM; with A549, above 10 µM; in the assay with A375, above 10 µM; with SMMC-7221, above 10 µM; in the assay with LO2, above 20 µM.

On to `COc1ccc(/C=C/C(=O)c2ccc(OC)c3c2OC(C)(C)C=C3)cc1OCCN1CCCCC1` [SKLBC-60, (E)-1-(5-methoxy-2,2-dimethyl-2H-chromen-8-yl)-3-(4-methoxy-3-(2-(piperidin-1-yl)ethoxy)phenyl)prop-2-en-1-one], for which the IC50 is above 10 µM with HepG2; above 10 µM in the assay on K562; above 10 µM in the assay on A549; above 10 µM with A375; above 10 µM in the assay on SMMC-7221; above 20 µM with LO2.

On to `COc1ccc(/C=C/C(=O)c2ccc(OC)c3c2OC(C)(C)C=C3)cc1OCCCN(C)C` [SKLBC-61, (E)-3-(3-(3-(dimethylamino)propoxy)-4-methoxyphenyl)-1-(5-methoxy-2,2-dimethyl-2H-chromen-8-yl)prop-2-en-1-one], for which the IC50 with HepG2 was 0.44 µM; with K562, 0.58 µM; in the assay with A549, 0.44 µM; in the assay on A375, 1.05 µM; with SMMC-7221, 1.15 µM; with LO2, above 10 µM.

On to `COc1ccc(/C=C/C(=O)c2ccc(OC)c3c2OC(C)(C)C=C3)cc1OC(=O)Cc1cccc(C(F)(F)F)c1` [SKLBC-62, (E)-2-methoxy-5-(3-(5-methoxy-2,2-dimethyl-2H-chromen-8-yl)-3-oxoprop-1-en-1-yl)phenyl 2-(3-(trifluoromethyl)phenyl)acetate], for which the IC50 in the assay with HepG2, in the assay with K562, in the assay with A549, in the assay with A375 and with SMMC-7221 was above 10 µM in each case.

On to `COc1cccc(C(=O)Oc2cc(/C=C/C(=O)c3ccc(OC)c4c3OC(C)(C)C=C4)ccc2OC)c1` [SKLBC-63, (E)-2-methoxy-5-(3-(5-methoxy-2,2-dimethyl-2H-chromen-8-yl)-3-oxoprop-1-en-1-yl)phenyl 3-methoxybenzoate], for which the IC50 in the assay with HepG2, with K562, in the assay with A549, with A375 and in the assay with SMMC-7221 was above 10 µM in each case.

`COc1ccc(/C=C/C(=O)Oc2cc(/C=C/C(=O)c3ccc(OC)c4c3OC(C)(C)C=C4)ccc2OC)cc1` [SKLBC-64, (E)-2-methoxy-5-((E)-3-(5-methoxy-2,2-dimethyl-2H-chromen-8-yl)-3-oxoprop-1-en-1-yl)phenyl 3-(4-methoxyphenyl)acrylate]: the IC50 in the assay with HepG2, in the assay on K562, with A549, with A375 and in the assay on SMMC-7221 was above 10 µM throughout.

Take `COc1ccc(/C=C/C(=O)c2ccc(OC)c3c2OC(C)(C)C=C3)cc1OC(=O)CCCc1ccc(N(CCCl)CCCl)cc1` [SKLBC-65, (E)-2-methoxy-5-(3-(5-methoxy-2,2-dimethyl-2H-chromen-8-yl)-3-oxoprop-1-en-1-yl)phenyl 4-(4-(bis(2-chloroethyl)amino)phenyl)butanoate]: the IC50 was 2.1 µM in the assay on HepG2; 0.6 µM in the assay on K562; 0.55 µM with A549; 3.8 µM in the assay with A375; 0.98 µM with SMMC-7221; above 10 µM with LO2.

As to `COc1ccc(/C=C/C(=O)c2ccc(OC)c3c2OC(C)(C)C=C3)cc1OC(=O)c1ccc(Br)cc1` [SKLBC-66, (E)-2-methoxy-5-(3-(5-methoxy-2,2-dimethyl-2H-chromen-8-yl)-3-oxoprop-1-en-1-yl)phenyl 4-bromobenzoate], the IC50 with HepG2 came to 0.368 µM; in the assay with K562, 1.11 µM; in the assay with A375, 0.413 µM; in the assay on SMMC-7221, 2.34 µM; in the assay on LO2 it was 8.4 µM.

Take `COc1ccc(/C=C/C(=O)c2ccc(OC)c3c2OC(C)(C)C=C3)cc1OC(=O)Cc1ccc(Cl)c(Cl)c1` [SKLBC-67, (E)-2-methoxy-5-(3-(5-methoxy-2,2-dimethyl-2H-chromen-8-yl)-3-oxoprop-1-en-1-yl)phenyl 2-(3,4-dichlorophenyl)acetate]: the IC50 in the assay with HepG2 was found to be 0.195 µM; in the assay on K562, 0.43 µM; in the assay on A549, 0.86 µM; in the assay on A375 it was 0.105 µM; in the assay on SMMC-7221, 1.9 µM; in the assay with LO2, 10 µM.

As for `COc1ccc(/C=C/C(=O)c2ccc(OC)c3c2OC(C)(C)C=C3)cc1OC(=O)c1ccco1` [SKLBC-68, (E)-2-methoxy-5-(3-(5-methoxy-2,2-dimethyl-2H-chromen-8-yl)-3-oxoprop-1-en-1-yl)phenyl furan-2-carboxylate], the IC50 with HepG2 is 0.068 µM; in the assay on K562 it was 0.245 µM; in the assay on A549 it was 0.8 µM; with A375, 0.68 µM; with SMMC-7221 it was 1.62 µM; with LO2, above 10 µM.

For the compound `COc1ccc(/C=C/C(=O)c2ccc(OC)c3c2OC(C)(C)C=C3)cc1OS(=O)(=O)c1ccc(C)cc1` [SKLBC-69, (E)-2-methoxy-5-(3-(5-methoxy-2,2-dimethyl-2H-chromen-8-yl)-3-oxoprop-1-en-1-yl)phenyl 4-methylbenzenesulfonate], the IC50 with HepG2 is 3.6 µM; in the assay with K562 it was 7.85 µM; in the assay with A549, 8.6 µM; in the assay on A375, 2.4 µM; with SMMC-7221, 9.2 µM; with LO2, above 10 µM.

Regarding `COc1ccc(/C=C/C(=O)c2ccc(OC)c3c2OC(C)(C)C=C3)cc1NCc1ccccc1` [SKLBC-90, (E)-3-(3-(benzylamino)-4-methoxyphenyl)-1-(5-methoxy-2,2-dimethyl-2H-chromen-8-yl)prop-2-en-1-one], the IC50 is 4.85 µM in the assay on HepG2; 9.28 µM in the assay with K562; 10 µM in the assay with A549; above 10 µM in the assay with SMMC-7221; above 10 µM in the assay with LO2.

`CCC(=O)Nc1cc(/C=C/C(=O)c2ccc(OC)c3c2OC(C)(C)C=C3)ccc1OC` [SKLBC-93, (E)-N-(2-methoxy-5-(3-(5-methoxy-2,2-dimethyl-2H-chromen-8-yl)-3-oxoprop-1-en-1-yl)phenyl)propionamide]: the IC50 in the assay with HepG2 is 4.55 µM; in the assay with K562, 2.4 µM; with A549, above 10 µM; in the assay with SMMC-7221 it was 5.1 µM; with LO2 it was 7.8 µM.
